This passage reports pest or weed control results from US11104648B2, “Pyrazole derivative” (Zhejiang Research Institute of Chemical Industry Co., Ltd., priority 2018, dated 2021).

Each structure is given as a SMILES string. Where only a bound is given, the exact number is not on record here.

Assay type in all cases: in vivo
Test [1] has as its system Tetranychus cinnabarinus Nymphs. Briefly: Activity assay of Tetranychus cinnabarinus nymphs (spray on broad bean leaves). The settings on record: 48 h, read-out: nymph-killing activity; for pest or weed control at 2.5 µg/mL: concentration 2.5 mg/L. The method in brief: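 Compound in DMF (≤10%) diluted in 1‰ Tween 80 water was sprayed onto broad bean leaves carrying nymphs hatched from eggs laid by female adults over 24 h. Kept at 26±2° C., 70%–80% humidity, 16 h light; mortality (no response to touch) assessed after 48 h, three replicates with blank control.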

For test [2], the system named is adult Tetranychus cinnabarinus. Nature of the test: Activity assay of adult Tetranychus cinnabarinus (whole-plant spray on bean seedlings). The settings on record: 48 h, read-out: adult mite-killing activity; for pest or weed control at 2.5 µg/mL: concentration 2.5 mg/L. The method in brief:
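Bean seedlings at two-true-leaf stage, infested with adult mites and base count taken, sprayed whole-plant with compound in DMF (≤10%) diluted in 1‰ Tween 80. Three replicates per treatment kept in standard observation room. Surviving mites counted at 48 h to give death rate.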

The subject of test [3] is Eggs of Tetranychus Cinnabarinus. Briefly: Activity assay of eggs of Tetranychus cinnabarinus (spray method, ovicidal). The settings on record: Tetranychus cinnabarinus, spray, read-out: ovicidal activity; for pest or weed control at 5 µg/mL: concentration 5 mg/L, non-incubated eggs counted as dead. The essentials:
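Female mites laid eggs on broad bean leaves for 24 h, adults removed, eggs sprayed with compound in DMF (≤10%)/1‰ Tween 80. Held at 26±2° C, 70–80% humidity, 16 h light; unhatched eggs counted dead once blank control hatched. Three replicates.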

`CCCCC(=O)OCO/C(=C(/C#N)c1ccc(C(C)(C)C)cc1)c1cc(C)nn1CC` [Compound 231]: the pest or weed control at 2.5 µg/mL in test [1] was at least 95%; in test [2], at least 90%. The pest or weed control at 5 µg/mL in test [3] is at least 90%.
For `CCn1nc(C)cc1/C(OC(C)OC(=O)C(F)(F)F)=C(\C#N)c1ccc(C(C)(C)C)cc1` (stereo not drawn) [Compound 263], the pest or weed control at 2.5 µg/mL in test [1] was at least 95%; in test [2], at least 90%. Besides, the pest or weed control at 5 µg/mL in test [3] was at least 90%.
As for `C=CC(=O)OC(C)O/C(=C(/C#N)c1ccc(C(C)(C)C)cc1)c1c(C)c(C)nn1C` (stereo not drawn) [Compound 192], the pest or weed control at 2.5 µg/mL in test [1] is at least 95%; in test [2], at least 90%. In test [3], the pest or weed control at 5 µg/mL was at least 90%.
Regarding `C=CCOC(=O)OCO/C(=C(/C#N)c1ccc(C(C)(C)C)cc1)c1cc(C)nn1CC` [Compound 570], the pest or weed control at 2 µg/mL in test [1] (concentration 2 mg/L) and in test [3] (concentration 2 mg/L) was at least 90% throughout. The pest or weed control at 2.5 µg/mL is at least 95% in test [1] and at least 90% in test [2]. Besides, the pest or weed control at 1.25 µg/mL in test [2] (concentration 1.25 mg/L) was at least 90%. Also, the pest or weed control at 5 µg/mL in test [3] is at least 90%.
In the case of `CCCCOC(=O)OC(C)O/C(=C(/C#N)c1ccc(C(C)(C)C)cc1)c1cc(C)nn1C` (stereo not drawn) [Compound 488], the pest or weed control at 2.5 µg/mL in test [1] is at least 95%; in test [2] it was at least 90%. Further, the pest or weed control at 5 µg/mL in test [3] was at least 90%.
With `COCCOC(=O)OCO/C(=C(/C#N)c1ccc(C(C)(C)C)cc1)c1cc(C)nn1C` [Compound 468], the figures for the pest or weed control at 2.5 µg/mL in test [1] and in test [2] were at least 95% and at least 90%, respectively. Moreover, in test [3], the pest or weed control at 5 µg/mL is at least 90%.
As for `CCCCC(=O)OC(C)O/C(=C(/C#N)c1ccc(C(C)(C)C)cc1)c1c(C)c(C)nn1C` (stereo not drawn) [Compound 181], the pest or weed control at 2.5 µg/mL is at least 95% in test [1] and at least 90% in test [2]. Further, the pest or weed control at 5 µg/mL in test [3] is at least 90%.
`CCCCC(=O)OC(C)O/C(=C(/C#N)c1ccc(C(C)(C)C)cc1)c1c(Cl)c(C)nn1CC` (stereo not drawn) [Compound 331]: the pest or weed control at 2.5 µg/mL in test [1] is at least 95%; in test [2] it was at least 90%. Moreover, the pest or weed control at 5 µg/mL in test [3] was at least 90%.
On to `CCn1nc(C)cc1/C(OCOC(=O)OCC(=O)OC)=C(\C#N)c1ccc(C(C)(C)C)cc1` [Compound 573], for which the results for the pest or weed control at 2.5 µg/mL in test [1] and in test [2] were at least 95% and at least 90%, respectively. Further, the pest or weed control at 5 µg/mL in test [3] was at least 90%.
Consider `CCn1nc(C)c(Cl)c1/C(OC(C)OC(=O)C(F)(F)F)=C(\C#N)c1ccc(C(C)(C)C)cc1` (stereo not drawn) [Compound 338], for which the pest or weed control at 2.5 µg/mL is at least 95% in test [1] and at least 90% in test [2]. Further, the pest or weed control at 5 µg/mL in test [3] was at least 90%.
Take `Cc1nn(C)c(/C(OC(C)OC(=O)C2CCCCC2)=C(\C#N)c2ccc(C(C)(C)C)cc2)c1Cl` (stereo not drawn) [Compound 111]: the pest or weed control at 2.5 µg/mL was at least 95% in test [1] and at least 90% in test [2]. Also, the pest or weed control at 5 µg/mL in test [3] was at least 90%.
As to `CCC(C)(C)C(=O)OC(C)O/C(=C(/C#N)c1ccc(C(C)(C)C)cc1)c1c(C)c(C)nn1C` (stereo not drawn) [Compound 191], the pest or weed control at 2.5 µg/mL in test [1] is at least 95%; in test [2], at least 90%. Moreover, the pest or weed control at 5 µg/mL in test [3] is at least 90%.
On to `CCn1nc(C)c(C)c1/C(OCOC(=O)c1ccccc1)=C(\C#N)c1ccc(C(C)(C)C)cc1` [Compound 389], for which the pest or weed control at 2.5 µg/mL in test [1] was at least 95%; in test [2] it was at least 90%. Moreover, in test [3], the pest or weed control at 5 µg/mL is at least 90%.
As to `Cc1cc(/C(OC(C)OC(=O)C(C)C)=C(\C#N)c2ccc(C(C)(C)C)cc2)n(C)n1` (stereo not drawn) [Compound 29], the pest or weed control at 2.5 µg/mL was at least 95% in test [1] and at least 90% in test [2]. Besides, the pest or weed control at 5 µg/mL in test [3] is at least 90%.
On to `Cc1nn(C)c(/C(OCOC(=O)C(C)C)=C(\C#N)c2ccc(C(C)(C)C)cc2)c1Cl` [Compound 79], for which the pest or weed control at 2.5 µg/mL was at least 95% in test [1] and at least 90% in test [2]. For the same molecule, in test [3], the pest or weed control at 5 µg/mL is at least 90%.
As to `CCCCCOC(=O)OC(C)O/C(=C(/C#N)c1ccc(C(C)(C)C)cc1)c1cc(C)nn1C` (stereo not drawn) [Compound 492], the pest or weed control at 2.5 µg/mL in test [1] was at least 95%; in test [2] it was at least 90%. Also, the pest or weed control at 5 µg/mL in test [3] was at least 90%.
Regarding `COC(=O)CSC(=O)OCO/C(=C(/C#N)c1ccc(C(C)(C)C)cc1)c1cc(C)nn1C` [Compound 481], the pest or weed control at 2.5 µg/mL in test [1] was at least 95%; in test [2] it was at least 90%. Besides, the pest or weed control at 5 µg/mL in test [3] is at least 90%.
For the molecule `CCCC(=O)OC(C)O/C(=C(/C#N)c1ccc(C(C)(C)C)cc1)c1cc(C)nn1CC` (stereo not drawn) [Compound 253], the pest or weed control at 2.5 µg/mL in test [1] is at least 95%; in test [2], at least 90%. For the same molecule, the pest or weed control at 5 µg/mL in test [3] was at least 90%.
